“And” between values parts separate entries of the source, which are not always exact repeats. Equal values may be shown once.
Columns and labels:
Format in all cases: cell-based, human
3D HepaRG/HSC co-culture [1] = assay: Single and repeated exposure, gene expression of HSC activation markers; conditions: for HSC activation (up-regulation of activation markers, mRNA): serum-free medium
Method: (§1) Single and repeated exposure. For the single and repeated compound exposure cell spheroids (3D HepaRG/HSC, 3D HepaRG and 3D HSC) were exposed respectively on day 20 for 24 h or every second day from day 8 to day 21 in serum-free medium with no additional solvent. Cells were exposed to a range of 8 concentrations between 0.5 and 80 mM for APAP single-dose, 0.125 and 40 mM for APAP repeated-dose, 0.3 and 500 μM Allyl Alcohol (AA, Sigma-Aldrich), 1.9 and 1000 μM Methotrexate (MTX, Pfizer, NY, USA). For the recovery assay, on day 21, cells were washed using serum-free medium and kept for 3 extra days.
For the cell culture samples, total RNA from 4-6 pooled spheroids was extracted from cells using the RNeasy Micro Kit (Qiagen, Venlo, Limburg, Netherlands). In the mouse assays, sorted HSC from different mice were lysed separately. Total RNA from tissue cultured cells was extracted using ReliaPrep RNA Cell Miniprep System (Promega).
Reverse-transcription using the Revert Aid Kit (ThermoFisher Scientific, Waltham, Massachusetts, USA) allowed conversion of RNA to cDNA. The RT reaction was performed at 25° C. for ten minutes followed by 30 minutes at 50° C. For quantitative real-time polymerase chain reaction (qPCR), GoTaq QPCR Master Mix with BRYTE green (Promega) was used, subjected to qPCR in a 7500 real time PCR system and analysed using System SDS software v2.0.5 (Applied Biosystems, Waltham, Mass., USA), using GAPDH for normalisation. Reliability of GAPDH as house-keeping gene was determined using Normfinder (Anderson et al., 2004). Fold change differences between samples were determined using the comparative Ct (δδCt) method. The expression level of different targets, relative to GAPDH (δCt) and relative to the calibrator, was given by 2^−δδCt.

3D HepaRG mono-culture [2] = assay: Pro-collagen measurement in culture supernatant (Type I C-Peptide); conditions: upon APAP incubation, 24 h
Method: (§2) Samples for pro-collagen measurement were five times concentrated using 10 kD Vivaspin 500 ultrafiltration columns (VWR, Radnor, Pa.), the resulting supernatant was analysed for the presence of Type I C-Peptide using the TAKARA (Chanteloup-en-Brie, France) kit.

3D HepaRG/HSC co-culture [3] = assay: as above; conditions: upon APAP incubation, 24 h
Method: as §2

3D HepaRG mono-culture [4] = assay: mRNA expression of HSC activation markers (qPCR) after APAP incubation; conditions: 20 mM APAP, 24h, Assays 1-3
Method: (§3) APAP toxicity assay was performed in 3D HepaRG/co-culture as well as in 3D HepaRG monoculture. For 24 h, starting at day 20, cells were exposed to a range of APAP concentrations between 0.5 and 80 mM, keeping cells with the solvent (0.1% DMSO) as a control. For some experiments the culture medium was supplemented with 2.5 mM valproic acid (VPA sodium salt, Sigma-Aldrich) or with cytokine mixture (Raicevic et al.,2012)-interleukin (IL)-1β 25 ng/mL (Peprotech, Rocky Hill, N.J., USA), interferon (IFN)-γ 10^3 U/mL, tumor necrosis factor (TNF)-a 50 ng/mL, and IFN-α 3·10^3 U/mL (all from Prospec, Inc., East Brunswick, N.J., USA). For the recovery assay, at the end of APAP incubation, cells were washed using HepaRG culture 0% DMSO medium and kept in the same medium for 3 more days.
(§4) At the end of the incubation period, 5 spheroids per condition were pooled and lysed for RNA analyses, while the remaining spheroids per condition were lysed individually for viability analysis using the Cell titer Glo kit (Promega) for ATP measurements following the instructions of the manufacturer.
(§5) Total RNA was extracted from cells using the ReliaPrep RNA Cell Miniprep System (Promega, Madison, Wis.). Reverse-transcription using the Revert Aid Kit (ThermoFisher Scientific, St. Leon-Rot, Germany) allowed conversion of RNA to cDNA. The RT reaction was performed at 25° C. for ten minutes followed by 30 minutes at 50° C. For quantitative real-time polymerase chain reaction (qPCR), GoTaq QPCR Master Mix with BRYTE green (Promega, Madison, Wis.) was used, subjected to qPCR in a 7500 real time PCR system and analysed using System SDS software v2.0.5 (Applied Biosystems), using GAPDH for normalisation.

3D HepaRG/HSC co-culture [5] = assay: as above; conditions: additional 3 days in culture upon APAP washout
Method: as §3, §4, §5

3D HepaRG/HSC co-culture [6] = assay: APAP toxicity assay, cell viability by ATP (Cell titer Glo); conditions: Homo sapiens, 3D HepaRG/HSC, current study, 0% DMSO, read-out: APAP EC50 values (±stdev)
Method: as §3, with “For 24 h, starting at day 20, cells were exposed to a range of APAP concentrations between 0.5 and 80 mM, keeping cells with the solvent (0.1% DMSO) as a control.” left out
as §4

3D HepaRG/HSC co-culture [7] = assay: Single and repeated exposure, cell viability (% ATP), serum-free medium; conditions: Homo sapiens, HepaRG, serum-free medium
Method: Culture medium. Day 0 cells were resuspended in HepaRG thawing medium and from day 1 to 21 cells were kept in the HepaRG culture medium 0% DMSO, until day 8. For the repeated versus single compound exposure assays, on day 8, the HepaRG culture medium 0% DMSO was replaced by the Serum-free HepaRG maintenance medium described in Klein et. al. 2013 (HepaRG Induction/Toxicity medium, DMSO 0.5% (v/v), 2 μg/ml of epidermal growth factor and 10 μg/ml of hepatocyte growth factor) and kept in this medium until the end of culture.
as §1
Cell viability assay was performed by measuring ATP production upon individual spheroid exposure to the different concentrations of the test compound. Cell spheroids were lysed individually for viability analysis using the Cell titer Glo kit (Promega) following the instructions of the manufacturer. Luminescence values were converted into percentage of ATP by comparison with controls and converted into dose-response curves using Prism 5 software.

CC(=O)Nc1ccc(O)cc1 [APAP, Acetaminophen]
concentration of peak HSC activation (3D HepaRG/HSC co-culture [1]; repeated exposure): 5 to 10 mM
HSC activation (up-regulation of activation markers, mRNA) (3D HepaRG/HSC co-culture [1]; repeated exposure): toxicity and HSC activation both in single and repeated-exposure
concentration of peak HSC activation (3D HepaRG/HSC co-culture [1]; single exposure): 20 to 40 mM
recovery of HSC 3 days after compound washout (3D HepaRG/HSC co-culture [1]; single exposure): observed
HSC activation (up-regulation of activation markers, mRNA) (3D HepaRG/HSC co-culture [1]; single exposure 24 h): toxicity and HSC activation both in single and repeated-exposure
collagen secretion (C-terminal pro-collagen in supernatant) (3D HepaRG mono-culture [2]): not observed
collagen secretion (C-terminal pro-collagen in supernatant) (3D HepaRG/HSC co-culture [3]): significant increase of collagen secretion
Col1a1 mRNA fold increase (3D HepaRG mono-culture [4]): 4.80 +/− 4.83 fold and 3.01 +/− 0.06 fold
aSMA mRNA fold increase (3D HepaRG mono-culture [4]): 0.69 +/− 0.09 fold and 1.06 +/− 0.13 fold
HSC activation markers after washout (3D HepaRG/HSC co-culture [5]): decrease of the HSC activation markers
EC50 (3D HepaRG/HSC co-culture [6]; 144 h, Day 6/7): 10 ± 1.09 mM
EC50 (3D HepaRG/HSC co-culture [6]; 504 h, Day 21/22): 8 ± 4.17 mM
EC50 (3D HepaRG/HSC co-culture [7]; repeated exposure, day 8 to day 21): 2.25 ± 0.35 mM
EC50 (3D HepaRG/HSC co-culture [7]; single exposure, 24 h on day 20): 10.4 ± 2.3 mM

From patent US20170166870A1, “HUMAN HEPATIC 3D CO-CULTURE MODEL AND USES THEREOF” (Vrije Universiteit Brussel, priority 2014, published 2017)
